Reference: patent publication US11345658B2, “Compounds and compositions comprising the same for treating hypertension or heart failure” (QUANTUM GENOMICS, priority 2019, dated 2022)

Experiments:
recombinant mouse APA = molecular target: T1, recombinant mouse APA (Mus musculus, UniProt P16406); assay: Measurement of APA activity in vitro (GluβNa hydrolysis, microplate); type: biochemical; details: 200 μM Glu-βNa, pH 7.4, 37° C., dithiothreitol, 4 mM CaCl2
T1 sequence (P16406 1-945): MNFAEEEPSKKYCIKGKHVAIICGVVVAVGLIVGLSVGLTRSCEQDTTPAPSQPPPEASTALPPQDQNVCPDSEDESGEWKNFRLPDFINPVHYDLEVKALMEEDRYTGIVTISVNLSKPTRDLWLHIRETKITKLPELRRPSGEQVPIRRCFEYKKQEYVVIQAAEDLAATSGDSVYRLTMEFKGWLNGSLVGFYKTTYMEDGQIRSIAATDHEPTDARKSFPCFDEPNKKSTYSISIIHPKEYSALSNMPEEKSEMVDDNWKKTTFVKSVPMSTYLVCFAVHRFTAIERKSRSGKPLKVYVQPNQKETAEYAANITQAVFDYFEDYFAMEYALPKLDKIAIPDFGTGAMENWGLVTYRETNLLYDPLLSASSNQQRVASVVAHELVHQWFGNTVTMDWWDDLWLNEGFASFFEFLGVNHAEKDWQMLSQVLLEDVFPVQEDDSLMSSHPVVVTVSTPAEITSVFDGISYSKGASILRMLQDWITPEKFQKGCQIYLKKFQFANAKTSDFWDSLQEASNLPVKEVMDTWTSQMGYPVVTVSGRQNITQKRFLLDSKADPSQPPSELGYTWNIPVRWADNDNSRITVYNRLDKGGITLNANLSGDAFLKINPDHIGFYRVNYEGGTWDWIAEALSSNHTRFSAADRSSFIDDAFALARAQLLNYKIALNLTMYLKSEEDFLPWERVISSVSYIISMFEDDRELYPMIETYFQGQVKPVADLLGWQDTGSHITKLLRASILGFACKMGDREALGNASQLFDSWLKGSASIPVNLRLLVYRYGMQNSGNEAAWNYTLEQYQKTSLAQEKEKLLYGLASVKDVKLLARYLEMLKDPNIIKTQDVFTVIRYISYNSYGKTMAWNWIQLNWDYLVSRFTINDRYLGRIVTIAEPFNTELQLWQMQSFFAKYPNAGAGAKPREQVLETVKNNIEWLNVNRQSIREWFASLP
Excerpt: Measurement of APA activity in vitro is based on the protocol of Goldbarg adjusted to the scale of assaying on microplates (Pro Bind™ 3915) (Chauvel et al., 1994). In vitro, in the presence of calcium ions, APA hydrolyses a synthetic substrate α-L-glutamyl-β-naphthylamide (GluβNa) to glutamate and β-naphthylamine ([…]). A diazotation reaction in acidic medium makes it possible to reveal the β-naphthylamine by formation of a violet-colored complex: spectrophotometric measurement then makes it possible to know the amount of complex formed and, by reference to a standard curve produced with increasing concentrations of β-naphthylamine, to deduce the enzymatic activity of the sample.
The Glu-βNa substrate (Bachem) and the β-naphthylamine (Sigma) are dissolved in 50% DMSO (dimethyl sulphoxide) and 0.1 N HCl respectively, and conserved at −20° C. at a concentration of 10^−2 M. The diazotation reaction is carried out in the presence of sodium nitrite (87 mM), ammonium sulfamate (130 mM) and N-(1-naphthyl)-ethylenediamine dihydrochloride (23 mM in 95% ethanol). […]
The absorbance is then measured at 540 nm. […]

brain APA [1] = molecular target: T2, brain APA (Mus musculus, UniProt P16406); assay: Measurement of brain APA activity ex vivo after i.v. administration in mice; details: 50 mg/kg i.v., 180 min after administration
T2 construct: from tissue; host or cells: mouse brain homogenate
T2 sequence (P16406 1-945): T1 sequence (P16406 1-945)
Protocol: (§1) Brain APA activity was determined as described above
In vivo, in mice (male, 18-20 g Charles River), Example 1 was administered i.v. (50 mg/kg, in a volume of 200 μL).
(§2) For each condition, four to sixteen mice and five to seven rats were used. Animals were sacrificed 180 min after the administration. The brains were immediately removed and homogenized by sonication in 10 vol of ice-cold 50 mM Tris-HCl buffer (pH 7.4). APA enzymatic activity was measured on brain homogenates. For this purpose, aliquots of the tissue homogenate (16 μL) were incubated for 30 min at 37° C. with 200 μM of Glu-βNa, 4 mM CaCl2, and 1 μM bestatin inhibitor, with or without 5 μM EC33, in a total volume of 100 μL of 50 mM Tris-HCl buffer (pH 7.4). Then the assay was pursued as described above.

brain APA [2] = molecular target: T3, brain APA (Rattus norvegicus, UniProt P50123); assay: Measurement of brain APA activity ex vivo after p.o. administration in DOCA-salt rats; details: 8 mg/kg p.o., 180 min after administration
T3 construct: from tissue; host or cells: DOCA-salt rat brain homogenate
T3 sequence (P50123 whole entry): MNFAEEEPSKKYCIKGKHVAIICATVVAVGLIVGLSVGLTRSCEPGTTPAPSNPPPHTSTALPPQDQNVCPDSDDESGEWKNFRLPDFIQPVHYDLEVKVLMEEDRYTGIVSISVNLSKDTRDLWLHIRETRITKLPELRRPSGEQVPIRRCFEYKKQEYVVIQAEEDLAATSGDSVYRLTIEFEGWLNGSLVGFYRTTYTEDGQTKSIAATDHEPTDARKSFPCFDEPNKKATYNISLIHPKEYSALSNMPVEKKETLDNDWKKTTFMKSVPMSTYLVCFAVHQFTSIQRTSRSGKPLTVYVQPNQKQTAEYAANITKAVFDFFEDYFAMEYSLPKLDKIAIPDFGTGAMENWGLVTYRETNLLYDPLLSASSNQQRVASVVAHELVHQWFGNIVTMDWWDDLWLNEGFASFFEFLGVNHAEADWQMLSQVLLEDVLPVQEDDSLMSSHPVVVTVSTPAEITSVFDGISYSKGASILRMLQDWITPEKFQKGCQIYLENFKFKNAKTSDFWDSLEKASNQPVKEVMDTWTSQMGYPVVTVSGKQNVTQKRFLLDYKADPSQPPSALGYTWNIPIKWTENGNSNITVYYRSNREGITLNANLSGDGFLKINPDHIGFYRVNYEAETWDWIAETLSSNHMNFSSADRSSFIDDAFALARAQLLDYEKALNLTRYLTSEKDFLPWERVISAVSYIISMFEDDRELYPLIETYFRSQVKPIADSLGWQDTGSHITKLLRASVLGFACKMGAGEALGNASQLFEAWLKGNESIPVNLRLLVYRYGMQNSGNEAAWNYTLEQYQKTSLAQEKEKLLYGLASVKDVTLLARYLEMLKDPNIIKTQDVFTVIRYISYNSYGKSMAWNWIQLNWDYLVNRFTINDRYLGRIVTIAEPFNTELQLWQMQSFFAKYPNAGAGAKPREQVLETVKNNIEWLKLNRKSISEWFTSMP
Protocol: as §1
In vivo, in DOCA-salt rats (male, 250 g Charles River), Example 2 was administered p.o. (8 mg/kg, in a volume of 400 μL).
as §2

[3] = test system: hypertensive DOCA-salt rats; assay: Measurement of mean arterial blood pressure (MABP) and heart rate (HR) in conscious hypertensive DOCA-salt rats; type: in vivo; details: 8 mg/kg p.o.
Protocol: Male DOCA-salt rats were anesthetized with 3% isoflurane (Iso-vet®, Piramal, UK) for induction and 1.5-2% isoflurane for maintenance. A catheter was inserted into the right femoral artery to monitor MABP and HR. The catheter was tunneled subcutaneously to exit from the neck. Animals were maintained for 2 days in the animal room, under frequent observation, before MABP and HR recording. Baseline MABP and HR were recorded for at least 60 min before Example 2 was administered p.o. (8 mg/kg, in a volume of 400 μL). MABP and HR were recorded continuously for 6 h after treatment.

post-MI mice = assay: Left ventricular ejection fraction (LVEF) by echocardiography in mice post myocardial infarction; type: in vivo, CD1 mice; details: mice 4 weeks post MI, Mean±SEM
Protocol: Adult male CD1 mice were anesthetized with a mixture of 100 mg/kg ketamine (Imalgene 1000, Merial, Lyon, France) and 10 mg/kg xylazine (Rompun 2%, Bayer Healthcare, Loos, France), via intraperitoneal injection, intubated and ventilated at a rate of 200 insufflations/min, with a mean insufflate volume of 0.2 mL (Bioseb, France). The skin was disinfected and incised between the 2nd and 3rd intercostal space and the heart was exposed by left thoracotomy. Pericardium was opened and the left anterior descending (LAD) coronary artery infarction was permanently ligatured between the pulmonary artery trunk and the left atrial appendage, with 8/0 […] suture. (PVDF monofilament, 8-0, Peters Surgical, Bobigny, France). Ischemia was confirmed by visible left ventricle (LV) bleaching under the ligature. The thorax was then closed by three discontinuous points (PVDF monofil, 6/0, Peters Surgical, Bobigny, France) then mice received a subcutaneously injection of Meloxicam 1 mg/kg (Metacam, Boehringer Ingelheim, Germany) for prolonged analgesia. The pneumothorax was drained. The muscles and skin were then sutured (prolene thread 6-0, Peters Surgical, France) and the animals were rehydrated with saline at 37° C. Animals were extubated as soon as they could breathe spontaneously. The animal was placed in a cage and monitored regularly over 48 hours. Mice received an injection of Meloxicam 1 mg/kg, 24 hours postsurgery and up to 72 hours. The same surgical procedure was performed without LAD coronary artery ligation in sham-operated mice.
Post-MI mice received chronic oral treatment firibastat (RB150 used as a reference of brain APA inhibitor) at 150 mg/kg, ramipril (ACE inhibitor as standard treatment) at 1.25 mg/kg, or example 2 at 25 mg/kg with peanut butter vehicle. […] Cardiac function was evaluated regularly by trans-thoracic echocardiography at 4 weeks post MI to analyze the effects of different chronic oral treatment on heart contractility.

N[C@@H](CCS(=O)(=O)O)CSSC[C@H](N)C(=O)O [Example 1, (2R)-2-amino-3-{[(2S)-2-amino-4-sulfobutyl]disulfanyl}propanoic acid]
In vitro inhibition of aminopeptidase A, Results (recombinant mouse APA): 0.81 ± 0.05 µM
brain APA activity (brain APA [1]; brain homogenate): 39.6±5.2 nmol of Glu-βNa hydrolyzed per mg of protein per h
decrease of brain APA activity (brain APA [1]; vs. control): 45%

N[C@@H](CSS[C@@H](CCc1ccccc1)[C@@H](N)CCS(=O)(=O)O)C(=O)O [Example 2, (2R)-2-amino-3-{[(3S,4S)-4-amino-1-phenyl-6-sulfohexan-3-yl]disulfanyl}propanoic acid]
In vitro inhibition of aminopeptidase A, Results (recombinant mouse APA): 0.18 ± 0.02 µM
brain APA activity (brain APA [2]; brain homogenate): 46.1±2.4 nmol of Glu-βNa hydrolyzed per mg of protein per h
decrease of brain APA activity (brain APA [2]; vs. control): 29%
effect on HR ([3]; 0 to 6 h after administration): no effect
decrease in MABP ([3]; 3 h after administration): −27±11 mmHg
decrease in MABP ([3]; 6 h after treatment): −44±8 mmHg
LVEF (post-MI mice; chronic oral 25 mg/kg once daily for 4 weeks): 50.6±0.9%

N[C@@H](CCS(=O)(=O)O)CSSC[C@@H](N)CCS(=O)(=O)O [firibastat]
LVEF (post-MI mice; chronic oral 150 mg/kg once daily for 4 weeks): 50.9±1%

CCOC(=O)[C@H](CCc1ccccc1)N[C@@H](C)C(=O)N1[C@H](C(=O)O)C[C@@H]2CCC[C@@H]21 [ramipril]
LVEF (post-MI mice; chronic oral 1.25 mg/kg once daily for 4 weeks): 48.4±1.2%
